Assay results from patent publication US11234979B2, “Heteroaryl compounds as muscarinic M1 receptor positive allosteric modulators” (SUVEN LIFE SCIENCES LIMITED, priority 2017, dated 2022).

Biological target: T1, recombinant human Muscarinic M1 receptor (Homo sapiens, UniProt P11229)
T1 construct: expressed in transfected cells
T1 sequence (P11229 1-460): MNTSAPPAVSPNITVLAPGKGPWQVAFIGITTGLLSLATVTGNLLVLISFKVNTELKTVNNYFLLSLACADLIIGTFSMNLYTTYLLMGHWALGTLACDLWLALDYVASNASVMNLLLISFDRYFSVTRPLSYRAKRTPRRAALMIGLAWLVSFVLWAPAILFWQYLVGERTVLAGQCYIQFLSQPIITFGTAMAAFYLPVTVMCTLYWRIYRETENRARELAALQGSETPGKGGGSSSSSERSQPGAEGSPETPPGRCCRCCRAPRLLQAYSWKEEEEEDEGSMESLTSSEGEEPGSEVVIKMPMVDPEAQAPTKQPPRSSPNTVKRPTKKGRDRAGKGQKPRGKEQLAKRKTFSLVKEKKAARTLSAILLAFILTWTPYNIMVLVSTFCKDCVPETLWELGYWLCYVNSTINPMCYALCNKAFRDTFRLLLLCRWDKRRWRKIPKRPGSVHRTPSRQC
Experiment: Allosteric potency EC50 for Muscarinic M1 receptor, CHO pCRE-Luc reporter assay with EC20 of acetylcholine
Type: cell-based
Details: CHO cells, in presence of EC20 of acetylcholine, 4 hours
Experimental: Determination of Allosteric Potency EC50 Values for Muscarinic M1 Receptor:
A stable CHO cell line expressing recombinant human Muscarinic M1 receptor and pCRE-Luc reporter system was used for cell-based assay. The assay offers a non-radioactive based approach to determine binding of a compound to GPCRs. In this specific assay, the level of intracellular cyclic AMP which is modulated by activation or inhibition of the receptor is measured. The recombinant cells harbor luciferase reporter gene under the control of cAMP response element.
The above cells were grown in 96 well clear bottom white plates in Hams F12 medium containing 10% fetal bovine serum (FBS). Prior to the addition of compounds or standard agonist, cells were serum starved overnight. Increasing concentrations of test compounds were added along with EC20 of acetylcholine in OptiMEM medium to the cells. The incubation was continued at 37° C. in CO2 incubator for 4 hours. Medium was removed and cells were washed with phosphate buffered saline. The cells were lysed and luciferase activity was measured in a Luminometer. Luminescence counts in each concentrations of test item were normalized to the acetylcholine induced maximum response and the data was analyzed using Graphpad software. EC50 values of the compounds were defined as the concentration required in stimulating the luciferase activity by 50% in presence of EC20 of acetylcholine.

In order of rising EC50:
1. Cn1cc(-c2ccc(Cc3cc(C(=O)N[C@H]4CCCC[C@@H]4O)n4ncccc34)c(F)c2F)cn1 [Example 36, N-(cis-1S,2S-2-Hydroxycyclohexyl)-5-[2,3-difluoro-4-(1-methyl-1H-pyrazol-4-yl)-benzyl]-pyrrolo[1,2-b]pyridazine-7-carboxamide]  94 nM
2. O=C(N[C@H]1CCCC[C@@H]1O)c1cc(Cc2ccc(Br)cc2)n2cccc(F)c12 [Example 41, N-(cis-1S,2S-2-Hydroxycyclohexyl)-3-(4-bromobenzyl)-8-fluoroindolizine-1-carboxamide]  236 nM
3. Cn1cc(-c2ccc(Cc3cc(C(=O)NC4CCOCC4O)n4ncccc34)cc2)cn1 (stereo not shown) [Example 39, N-(3-Hydroxytetrahydropyran-4-yl)-5-[4-(1-methyl-1H-pyrazol-4-yl)-benzyl]-pyrrolo[1,2-b]pyridazine-7-carboxamide]  291 nM
4. O=C(N[C@H]1CCCC[C@@H]1O)c1cc(Cc2ccc(F)c(Br)c2)c2cccnn12 [Example 26, N-(cis-1S,2S-2-Hydroxycyclohexyl)-5-(3-bromo-4-fluorobenzyl)-pyrrolo[1,2-b]pyridazine-7-carboxamide]  643 nM
5. O=C(N[C@H]1CCCC[C@@H]1O)c1cc(Cc2ccc(F)cc2F)c2cccnn12 [Example 7, N-(cis-1S,2S-2-Hydroxycyclohexyl)-5-(2,4-difluorobenzyl)-pyrrolo[1,2-b]pyridazine-7-carboxamide]  779 nM
6. O=C(N[C@H]1CCCC[C@@H]1O)c1cc(Cc2ccc(F)cc2)c2cccnn12 [Example 8, N-(cis-1S,2S-2-Hydroxycyclohexyl)-5-(4-fluorobenzyl)-pyrrolo[1,2-b]pyridazine-7-carboxamide]  863 nM
7. Cn1cc(-c2cc(Cc3cc(C(=O)N[C@H]4CCCC[C@@H]4O)n4ncccc34)ccc2F)cn1 [Example 37, N-(cis-1S,2S-2-Hydroxycyclohexyl)-5-[4-fluoro-3-(1-methyl-1H-pyrazol-4-yl)-benzyl]-pyrrolo[1,2-b]pyridazine-7-carboxamide]  1000 nM
8. O=C(N[C@H]1CCCC[C@@H]1O)c1cc(Cc2ccnc(Br)c2)c2cccnn12 [Example 29, N-(cis-1S,2S-2-Hydroxycyclohexyl)-5-(2-bromopyridin-4-ylmethyl)-pyrrolo[1,2-b]pyridazine-7-carboxamide]  1010 nM
9. O=C(NC1CCOCC1O)c1cc(Cc2ccc(Br)cc2)c2cccnn12 (stereo not shown) [Example 31, N-(3-Hydroxytetrahydropyran-4-yl)-5-(4-bromobenzyl)-pyrrolo[1,2-b]pyridazine-7-carboxamide]  1030 nM
10. COc1ccc(Cc2cc(C(=O)N[C@H]3CCCC[C@@H]3O)n3ncccc23)c(F)c1 [Example 14, N-(cis-1S,2S-2-Hydroxycyclohexyl)-5-(2-fluoro-4-methoxybenzyl)-pyrrolo[1,2-b]pyridazine-7-carboxamide]  1080 nM
11. O=C(N[C@H]1CCCC[C@@H]1O)c1cc(Cc2ccccc2)n2cccc(F)c12 [Example 42, N-(cis-1S,2S-2-Hydroxycyclohexyl)-3-benzyl-8-fluoroindolizine-1-carboxamide]  1130 nM
12. O=C(N[C@H]1CCCC[C@@H]1O)c1cc(Cc2ccc(F)cc2Br)c2cccnn12 [Example 24, N-(cis-1S,2S-2-Hydroxycyclohexyl)-5-(2-bromo-4-fluorobenzyl)-pyrrolo[1,2-b]pyridazine-7-carboxamide]  1180 nM
13. Cn1cc(-c2ccc(Cc3cc(C(=O)NC4CCOCC4O)c4c(F)cccn34)cc2)cn1 (stereo not shown) [Example 49, N-(3-Hydroxytetrahydropyran-4-yl)-3-(4-(1-methyl-1H-pyrazol-4-yl)-benzyl)-8-fluoroindolizine-1-carboxamide]  1210 nM
14. COc1ccc(Cc2cc(C(=O)N[C@H]3CCCC[C@@H]3O)n3ncccc23)cc1F [Example 10, N-(cis-1S,2S-2-Hydroxycyclohexyl)-5-(3-fluoro-4-methoxybenzyl)-pyrrolo[1,2-b]pyridazine-7-carboxamide]  1220 nM
15. O=C(N[C@H]1CCCC[C@@H]1O)c1cc(Cc2ccnc(Cl)c2)c2cccnn12 [Example 11, N-(cis-1S,2S-2-Hydroxycyclohexyl)-5-(2-chloro-pyridin-4-ylmethyl)-pyrrolo[1,2-b]pyridazine-7-carboxamide]  1300 nM
16. COc1cc(Cc2cc(C(=O)N[C@H]3CCCC[C@@H]3O)n3ncccc23)ccc1F [Example 12, N-(cis-1S,2S-2-Hydroxycyclohexyl)-5-(4-fluoro-3-methoxybenzyl)-pyrrolo[1,2-b]pyridazine-7-carboxamide]  1340 nM
17. O=C(N[C@H]1CCCC[C@@H]1O)c1cc(Cc2ccc(Br)cc2)c2cccnn12 [Example 1, N-(cis-1S,2S-2-Hydroxycyclohexyl)-5-(4-bromobenzyl)-pyrrolo[1,2-b]pyridazine-7-carboxamide]  1470 nM
18. Cn1cc(-c2cccc(Cc3cc(C(=O)N[C@H]4CCCC[C@@H]4O)n4ncccc34)c2)cn1 [Example 38, N-(cis-1S,2S-2-Hydroxycyclohexyl)-5-[3-(1-methyl-1H-pyrazol-4-yl)-benzyl]-pyrrolo[1,2-b]pyridazine-7-carboxamide]  1530 nM
19. Cn1cc(-c2cc(Cc3cc(C(=O)N[C@H]4CCCC[C@@H]4O)n4ncccc34)ccn2)cn1 [Example 40, N-(cis-1S,2S-2-Hydroxycyclohexyl)-5-[2-(1-methyl-1H-pyrazol-4-yl)-pyridin-4-ylmethyl]-pyrrolo[1,2-b]pyridazine-7-carboxamide]  1650 nM
20. O=C(N[C@H]1CCCC[C@@H]1O)c1cc(Cc2cccc(Br)c2)c2cccnn12 [Example 27, N-(cis-1S,2S-2-Hydroxycyclohexyl)-5-(3-bromobenzyl)-pyrrolo[1,2-b]pyridazine-7-carboxamide]  1700 nM
21. O=C(N[C@H]1CCCC[C@@H]1O)c1cc(Cc2ccnc(Cl)c2)n2cccc(F)c12 [Example 43, N-(cis-1S,2S-2-Hydroxycyclohexyl)-3-(2-chloropyridine-4-ylmethyl)-8-fluoroindolizine-1-carboxamide]  2060 nM
22. O=C(N[C@H]1CCCC[C@@H]1O)c1cc(Cc2cccc(F)c2)c2cccnn12 [Example 19, N-(cis-1S,2S-2-Hydroxycyclohexyl)-5-(3-fluorobenzyl)-pyrrolo[1,2-b]pyridazine-7-carboxamide]  2100 nM
23. O=C(N[C@H]1CCCC[C@@H]1O)c1cc(Cc2cccc(F)c2F)c2cccnn12 [Example 9, N-(cis-1S,2S-2-Hydroxycyclohexyl)-5-(2,3-difluorobenzyl)-pyrrolo[1,2-b]pyridazine-7-carboxamide]  2110 nM
24. O=C(N[C@H]1CCCC[C@@H]1O)c1cc(Cc2ccc(Br)nc2)c2cccnn12 [Example 5, N-(cis-1S,2S-2-Hydroxycyclohexyl)-5-(2-bromo-pyridin-5-ylmethyl)-pyrrolo[1,2-b]pyridazine-7-carboxamide]  2130 nM
25. O=C(N[C@H]1CCCC[C@@H]1O)c1cc(Cc2ccc(Br)c(F)c2F)c2cccnn12 [Example 25, N-(cis-1S,2S-2-Hydroxycyclohexyl)-5-(2,3-difluoro-4-bromobenzyl)-pyrrolo[1,2-b]pyridazine-7-carboxamide]  2290 nM
26. Cn1cc(-c2ccc(Cc3cc(C(=O)NC4CCOCC4)c4c(F)cccn34)cc2)cn1 [Example 50, N-(Tetrahydropyran-4-yl)-3-(4(1-methyl-1H-pyrazol-4-yl)-benzyl)-8-fluoroindolizine-1-carboxamide]  2530 nM
27. O=C(N[C@H]1CCCC[C@@H]1O)c1cc(Cc2ccc(Cl)nc2)c2cccnn12 [Example 16, N-(cis-1S,2S-2-Hydroxycyclohexyl)-5-(2-chloro-pyridin-5-ylmethyl)-pyrrolo[1,2-b]pyridazine-7-carboxamide]  2760 nM
28. O=C(N[C@H]1CCCC[C@@H]1O)c1cc(Cc2ccc(-c3cscn3)cc2)n2cccc(F)c12 [Example 45, N-(cis-1S,2S-2-Hydroxycyclohexyl)-3-(4-thiazol-4-yl-benzyl)-8-fluoroindolizine-1-carboxamide]  3190 nM
29. Cn1cc(-c2ccc(Cc3cc(C(=O)NC4COCCC4O)c4c(F)cccn34)cc2)cn1 (stereo not shown) [Example 51, N-(4-Hydroxytetrahydropyran-3-yl)-3-(4-(1-methyl-1H-pyrazol-4-yl)-benzyl)-8-fluoroindolizine-1-carboxamide]  3650 nM
30. COc1cccc(Cc2cc(C(=O)N[C@H]3CCCC[C@@H]3O)n3ncccc23)c1F [Example 18, N-(cis-1S,2S-2-Hydroxycyclohexyl)-5-(2-fluoro-3-methoxybenzyl)-pyrrolo[1,2-b]pyridazine-7-carboxamide]  3720 nM
31. O=C(NC1CCOCC1)c1cc(Cc2ccc(Cl)nc2)c2cccnn12 [Example 17, N-(Tetrahydropyran-4-yl)-5-(2-chloropyridin-5-ylmethyl)-pyrrolo[1,2-b]pyridazine-7-carboxamide]  10000 nM
